Series [1] has as its system MYCN gene. Briefly: QT-PCR, MYCN mRNA in Kelly cells. It counts as cell-based, human. The conditions noted are these: for mRNA inhibition (%): Table 1, PNA 1 μM, RNA extracted after 24 hours; for mRNA inhibit. (%): Table 11, MYCN, 2.5 μM. The method, then: (§1) For the purpose of assessing the ability of the oligonucleotides of the present invention to modulate the expression of the target genes, their ability to reduce the quantity of messenger RNA was analyzed using the Real-Time PCR technique.
(§2) For this purpose, use was made of 24-well plates, which were seeded with 5.0×10^4 cells with 0.3 ml of OPTI-MEM (GIBCO BRL) medium, 4% FBS and 2 mM L-glutammine (experiments in triplicate) per well.
(§3) The cells were incubated for 24 hours at 37° C., in an atmosphere containing 5% CO2 to permit adherence to the base of the wells.
Each oligonucleotide analyzed, except for the PNA oligonucleotides, was incubated beforehand with 2 μl of Lipofectamine 2000 (Invitrogen), with 0.3 mL of serum-free OPTI-MEM (GIBCO BRL) medium.
(§4) For each well, the oligonucleotides were analyzed at the following final concentrations: • the antisense oligonucleotides siRNA and siRNA gapmer (i.e. the oligonucleotides containing one or more monomers of chemically modified nucleic acids at the 3′ or 5′ end, while in the central portion they have monomers of nucleic acids that have not been modified or have been modified at the level of the phosphodiester bond as a phosphorothioate bond) were used at 200 nM; • the antisense oligonucleotides containing phosphorothioate DNA monomers, the RNA antigene oligonucleotides (agRNA) and the oligonucleotides containing DNA monomers and LNA monomers were used at 10 μM; • the morpholino oligonucleotides were used at a concentration of 1 μM, and • the PNA oligonucleotides were administered at a concentration of 1 μM.
(§5) The cells were treated with the oligonucleotides, adding FBS up to 4% 6 hours after administration of the same. After 24 hours the total RNA was extracted from each well and purified using the RNeasy Mini Kit (QIAGEN).
(§6) Assays were performed on 8 cell lines obtained from 5 different human tumours which are correlated with MYCN expression, i.e.: • as a neuroblastoma model use was made of the cell lines Kelly, IMR-32 (where the MYCN gene is amplified and superexpressed) and SKNBE2c and LAN1 (where the MYCN gene is amplified and superexpressed and the p53 gene is mutated); • as a rabdomiosarcoma model use was made of the cell line RH30, where the MYCN gene is amplified and superexpressed; • as a Wilms' tumour model use was made of the cell line WiT49, where the MYCN gene is amplified and superexpressed; • as a retinoblastoma model use was made of the cell line Y79, where the MYCN gene is amplified and superexpressed; and • as a model of small cell lung cancer use was made of the cell line H69 where the MYCN gene is amplified and superexpressed.
(§7) As a control, use was made of the same cell lines as listed above treated with sterile water instead of oligonucleotides. Each RNA sample was quantified (in duplicate) using a NanoDrop ND-1000 spectrophotometer (NanoDrop Technologies). The first strand of cDNA was produced using the cDNA Synthesis Kit for RT-PCR (Roche). For the cDNA synthesis reaction a total of 1 μg of RNA was used. For the real-time PCR, 10 ng of cDNA in a final volume of 20 μl was used with SYBR Green Master Mix 2× (Applied Biosystems) (3 identical experiments were conducted in triplicate). Two housekeeping genes were used as positive controls: GAPDH and beta-actin (ACTB).
(§8) The conditions of the QT-PCR reaction were: 10 min at 95° C., 20 sec at 95° C., and 30 sec at 60° C., for 50 cycles.
(§9) As far as the PNA oligonucleotides are concerned, the results regarding their ability to inhibit the transcription of the MYCN gene and proliferation of Kelly cells are shown in Table 1.
(§10) The oligonucleotides were tested in vitro (at a concentration of 2.5 μM) to determine their ability to inhibit the transcription of the gene they are directed against by measuring the levels of the gene messenger in cellular models in which the gene of interest is overexpressed. The methods used are the ones described in example 1. […]

The next series has as its system Kelly cells. The series is described as follows: Cellular proliferation assay (ATP-Lite), Kelly cells. It counts as cell-based, human. The protocol: (§11) For the purpose of assessing the gene modulation ability of the oligonucleotides of the present invention, the effect of their administration on cell viability was determined.
(§12) For this purpose 5×10^3 cells per well were seeded into 96-well cell culture plates (experiments conducted in triplicate) with 100 μl of OPTI-MEM (GIBCO BRL) medium containing 4% FBS and 2 mM of L-glutammine.
(§13) The PNA oligonucleotides were administered at different concentrations (1 μM-2.5 μM-5 μM-10 μM) in order to observe a dose-effect relationship.
As regards all the other oligonucleotides, the concentrations at which they administered are listed in the paragraph:
(§14) The viability of the treated cells was determined at 48, 72, 96 and 168 hours after treatment.
(§15) Cell viability was assessed by means of an ATP-Lite assay (Luminescence ATP Detection Assay System, PerkinElmer) and is reported as the ratio between the average signal of the treated wells compared to the average value of the wells of untreated control cells. The cells were processed following the instructions provided with the kit.
(§16) The assays were performed on the same cell lines used to determine the levels of the MYCN gene messenger and listed in the paragraph: Treatments with Oligonucleotides—QT-PCR.
as §9
(§17) The ability of the tested oligonucleotides to inhibit the messenger of the gene of interest was measured and the proliferative capacity of the cells following administration of the oligonucleotides was also assessed.

The test system of another series is Phoenix. Briefly: Cellular proliferation, Phoenix fibroblastoid-type cells. It counts as cell-based. The conditions noted are these: Table 1; cells that do not express MYCN. The protocol:
as §15
(§18) Moreover, the oligonucleotides having SEQ ID NO 1-23 were administered in lines of fibroblastoid-type cells (NIH-3T3 and Phoenix) and the results are shown in Table 1 (last two columns). […]

The test system of the next series is NIH-3T3. Briefly: Cellular proliferation, NIH-3T3 fibroblastoid-type cells. It counts as cell-based. The following applies: Table 1; cells that do not express MYCN. The method, then: as §15, §18
The test system of series [2] is MYCN gene. Briefly: QT-PCR, MYCN mRNA in H69 cells. It counts as cell-based, human. The following applies: Table 11, MYCN, 2.5 μM. The method, then:
as §1, §2, §3, §4, §5, §6, §7, §8
(§19) The PNAs having SEQ ID NO: 1-12 were also tested on different cell lines which overexpress MYCN (Kelly, SKNBE2c, RH30, WiT49, WERI-Rb1 1 and H69). The results are shown in Table 6 and confirm the selectivity and specificity of the inhibition effect of the PNAs on the product of protein translation of the MYCN gene.
as §10

A further series concerns H69. The series is described as follows: Cellular proliferation assay (ATP-Lite), H69 cells. It counts as cell-based, human. The following applies: Table 11, MYCN-directed PNA, 2.5 μM. The method, then: as §11, §12, §13, §14, §15, §16, §19, §17
[3] abbreviates: Table 1, treated vs untreated control cells.
The mark [4] stands for this setting: Table 11, MYCN-directed PNA, 2.5 μM.

Consider “SEQ ID NO: 13: PNA antigene oligonucleotide ACGCTCAGGGACCACG directed against MYCN (all peptide nucleic acid (PNA))”, for which the “mRNA inhibition (%)” value with MYCN gene [1] was determined as 48%. Besides, the “Cell Prolif. (%)” value with Kelly cells (setting [3]) was determined as 66%. Moreover, the “Phoenix prolif. (%)” value in the series with Phoenix is 100%. Moreover, in the series on NIH-3T3, the “NIH-3T3 prolif. (%)” value is 100%.

Consider “SEQ ID NO: 14: PNA antigene oligonucleotide CCCGGACGAAGATGAC directed against MYCN (all peptide nucleic acid (PNA))”, for which the “mRNA inhibition (%)” value in the series on MYCN gene [1] is listed as 40%. In addition, the “Cell Prolif. (%)” value in the series with Kelly cells (setting [3]) worked out at 70%. The “Phoenix prolif. (%)” value in the series with Phoenix turned out to be 100%. For the same substance, the “NIH-3T3 prolif. (%)” value in the series with NIH-3T3 stood at 100%.

For the substance “SEQ ID NO: 15: PNA antigene oligonucleotide ACTGTGTTGGAGCCGA directed against MYCN (all peptide nucleic acid (PNA))”, the “mRNA inhibition (%)” value in the series on MYCN gene [1] was 37%. Further, the “Cell Prolif. (%)” value in the series on Kelly cells (setting [3]) came out at 77%. Moreover, the “Phoenix prolif. (%)” value in the series on Phoenix was determined as 100%. In addition, in the series with NIH-3T3, the “NIH-3T3 prolif. (%)” value amounted to 100%.

For the substance “SEQ ID NO: 16: PNA CCTGTCGTAGACAGCT without groups of consecutive guanines, negative control (PNA backbone, chemistry not fully specified) [reference compound]”, in the series on MYCN gene [1], the “mRNA inhibition (%)” value was determined as 14%. Further, the “Cell Prolif. (%)” value in the series on Kelly cells (setting [3]) was 90%. Besides, the “Phoenix prolif. (%)” value in the series with Phoenix was 100%. Also, in the series with NIH-3T3, the “NIH-3T3 prolif. (%)” value was 100%.

With “SEQ ID NO: 17: PNA TGTGACAGTCATCTGT without groups of consecutive guanines, negative control (PNA backbone, chemistry not fully specified) [reference compound]”, the “mRNA inhibition (%)” value in the series on MYCN gene [1] is on record as 10%. Moreover, in the series with Kelly cells (setting [3]), the “Cell Prolif. (%)” value was found to be 98%. For the same substance, the “Phoenix prolif. (%)” value with Phoenix is 100%. Moreover, in the series on NIH-3T3, the “NIH-3T3 prolif. (%)” value worked out at 100%.

With “SEQ ID NO: 18: PNA GTGACAGTCATCTGTC without groups of consecutive guanines, negative control (PNA backbone, chemistry not fully specified) [reference compound]”, the “mRNA inhibition (%)” value in the series on MYCN gene [1] is reported as 10%. Moreover, in the series with Kelly cells (setting [3]), the “Cell Prolif. (%)” value came out at 98%. Moreover, the “Phoenix prolif. (%)” value with Phoenix is listed as 100%. The “NIH-3T3 prolif. (%)” value with NIH-3T3 was 100%.

Turning to “SEQ ID NO: 19: PNA GACAGTCATCTGTCTG without groups of consecutive guanines, negative control (PNA backbone, chemistry not fully specified) [reference compound]”, the “mRNA inhibition (%)” value in the series on MYCN gene [1] came out at 5%. The “Cell Prolif. (%)” value with Kelly cells (setting [3]) is given as 100%. Moreover, the “Phoenix prolif. (%)” value with Phoenix turned out to be 100%. The “NIH-3T3 prolif. (%)” value with NIH-3T3 is listed as 100%.

On to “SEQ ID NO: 20: PNA CGTCGATTTCTTCCTC without groups of consecutive guanines, negative control (PNA backbone, chemistry not fully specified) [reference compound]”, for which, in the series on MYCN gene [1], the “mRNA inhibition (%)” value is on record as 5%. In addition, the “Cell Prolif. (%)” value in the series on Kelly cells (setting [3]) is listed as 100%. The “Phoenix prolif. (%)” value in the series with Phoenix was found to be 100%. Moreover, the “NIH-3T3 prolif. (%)” value in the series with NIH-3T3 worked out at 100%.

On to “SEQ ID NO: 21: PNA CTCGAGTTTGACTCGC without groups of consecutive guanines, negative control (PNA backbone, chemistry not fully specified) [reference compound]”, for which the “mRNA inhibition (%)” value in the series with MYCN gene [1] stood at 1%. The “Cell Prolif. (%)” value in the series on Kelly cells (setting [3]) turned out to be 100%. Also, in the series with Phoenix, the “Phoenix prolif. (%)” value was 100%. Besides, the “NIH-3T3 prolif. (%)” value with NIH-3T3 was 100%.

As for “SEQ ID NO: 22: PNA GCGCCTCCCCTGATTT without groups of consecutive guanines, negative control (PNA backbone, chemistry not fully specified) [reference compound]”, the “mRNA inhibition (%)” value in the series on MYCN gene [1] worked out at 2%. Besides, the “Cell Prolif. (%)” value in the series on Kelly cells (setting [3]) turned out to be 100%. Besides, the “Phoenix prolif. (%)” value with Phoenix is on record as 100%. Besides, the “NIH-3T3 prolif. (%)” value in the series on NIH-3T3 was found to be 100%.

Turning to “SEQ ID NO: 23: PNA ATATCCCCCGAGCTTC without groups of consecutive guanines, negative control (PNA backbone, chemistry not fully specified) [reference compound]”, in the series with MYCN gene [1], the “mRNA inhibition (%)” value is on record as 2%. Moreover, the “Cell Prolif. (%)” value in the series on Kelly cells (setting [3]) is 100%. In the series on Phoenix, the “Phoenix prolif. (%)” value stood at 100%. The “NIH-3T3 prolif. (%)” value with NIH-3T3 stood at 100%.

As for “SEQ ID NO: 66: PNA TCGGGAGCAGTGGGCA directed against MYCN (all peptide nucleic acid (PNA); antigene PNA, further chemistry not fully specified)”, the “mRNA inhibit. (%)” value in the series with MYCN gene [1] was 57%; with MYCN gene [2], 41%. In addition, the entries for the “Cell Prolif. (%)” value in the series with Kelly cells (setting [4]) and in the series on H69 were 60% and 73%, respectively.

In the case of “SEQ ID NO: 67: PNA GCGGGTCGCGGGCACG directed against MYCN (all peptide nucleic acid (PNA); antigene PNA)”, the “mRNA inhibit. (%)” value in the series on MYCN gene [1] was 60%; with MYCN gene [2], 42%. Also, the figures for the “Cell Prolif. (%)” value with Kelly cells (setting [4]) and in the series with H69 were 56% and 71%, respectively.

On to “SEQ ID NO: 68: PNA TGGAGGTCGGCGCCGG directed against MYCN (all peptide nucleic acid (PNA); antigene PNA)”, for which the entries for the “mRNA inhibit. (%)” value with MYCN gene [1] and in the series with MYCN gene [2] were 74% and 62%, respectively. The “Cell Prolif. (%)” value with Kelly cells (setting [4]) is 35%; in the series with H69, 49%.

Turning to “SEQ ID NO: 69: PNA TCGGCGGGAGGTAAGG directed against MYCN (all peptide nucleic acid (PNA); antigene PNA)”, the “mRNA inhibit. (%)” value is listed as 76% with MYCN gene [1] and 67% in the series on MYCN gene [2]. Moreover, the “Cell Prolif. (%)” value with Kelly cells (setting [4]) is given as 30%; in the series on H69 it was 45%.
